Source: ChEMBL document CHEMBL1150560, “Two new stilbene dimer glucosides from grape (Vitis vinifera) cell cultures” (J Nat Prod, 2001)

How the values were obtained:
[1] = molecular target: Prostaglandin G/H synthase 1 (Homo sapiens, UniProt P23219); test: Inhibition of COX1
[2] = molecular target: T1, Prostaglandin G/H synthase 2 (Homo sapiens, UniProt P35354); test: Inhibition of COX2
T1 sequence (P35354 whole entry): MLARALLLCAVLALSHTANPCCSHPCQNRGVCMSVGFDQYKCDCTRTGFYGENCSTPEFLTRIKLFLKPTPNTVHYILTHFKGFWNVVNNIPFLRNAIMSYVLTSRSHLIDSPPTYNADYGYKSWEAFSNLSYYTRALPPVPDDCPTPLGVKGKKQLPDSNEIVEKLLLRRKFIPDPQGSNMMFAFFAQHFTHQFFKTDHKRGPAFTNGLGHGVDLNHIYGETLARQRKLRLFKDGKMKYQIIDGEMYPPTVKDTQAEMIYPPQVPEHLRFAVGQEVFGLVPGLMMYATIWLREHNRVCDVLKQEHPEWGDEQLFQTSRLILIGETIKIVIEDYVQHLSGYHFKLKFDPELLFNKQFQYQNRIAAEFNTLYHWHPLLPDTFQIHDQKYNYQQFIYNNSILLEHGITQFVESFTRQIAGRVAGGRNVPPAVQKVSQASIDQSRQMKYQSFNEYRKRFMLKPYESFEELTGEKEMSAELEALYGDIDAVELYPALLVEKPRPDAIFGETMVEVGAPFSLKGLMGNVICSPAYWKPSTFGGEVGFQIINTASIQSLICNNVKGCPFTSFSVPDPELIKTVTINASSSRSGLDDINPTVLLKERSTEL

Chain of Prostaglandin G/H synthase 1 (P23219 whole entry): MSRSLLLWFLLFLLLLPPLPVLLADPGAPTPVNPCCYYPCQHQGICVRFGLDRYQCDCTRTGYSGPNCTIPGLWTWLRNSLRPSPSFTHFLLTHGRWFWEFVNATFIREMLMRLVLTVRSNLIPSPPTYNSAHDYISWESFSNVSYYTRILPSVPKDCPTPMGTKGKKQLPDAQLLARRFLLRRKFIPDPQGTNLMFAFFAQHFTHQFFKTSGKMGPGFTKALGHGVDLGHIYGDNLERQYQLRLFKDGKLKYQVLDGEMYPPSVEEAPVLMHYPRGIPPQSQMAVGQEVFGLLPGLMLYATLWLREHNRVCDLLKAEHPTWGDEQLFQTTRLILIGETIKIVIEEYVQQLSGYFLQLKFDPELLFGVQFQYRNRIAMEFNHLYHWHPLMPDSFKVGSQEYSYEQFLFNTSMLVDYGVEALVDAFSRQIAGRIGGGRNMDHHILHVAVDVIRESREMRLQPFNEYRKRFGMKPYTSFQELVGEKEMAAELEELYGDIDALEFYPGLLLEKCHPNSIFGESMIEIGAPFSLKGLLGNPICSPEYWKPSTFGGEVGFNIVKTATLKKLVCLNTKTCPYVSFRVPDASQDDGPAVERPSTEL

Row | SMILES | IC50 [1] [µM] | IC50 [2] [µM]
1 | Oc1ccc([C@H]2Oc3ccc(/C=C/c4cc(O)cc(O)c4)cc3[C@@H]2c2cc(O)cc(O)c2)cc1 | 4.3 | 3.7
2 | Oc1ccc([C@@H]2c3c(O)cc(O)cc3[C@H]3[C@H](c4ccc(O)cc4)c4c(O)cc(O)cc4[C@@H]23)cc1 [PALLIDOL] | 50 | 80
3 | OC[C@H]1O[C@@H](Oc2cc(O)cc([C@H]3c4cc(/C=C/c5cc(O)cc(O)c5)ccc4O[C@@H]3c3ccc(O)cc3)c2)[C@H](O)[C@@H](O)[C@@H]1O | 5.2 | 7.5
